Patent publication US20140051575A1 (priority 2011, published 2014)

Columns and labels:
Pythium ultimum = experiment: Pythium test (cotton)/seed treatment; format: in vivo; details: 50 g/dt seed of active ingredient, greenhouse 7 days, 100% = all seedlings have emerged
Method: The test is performed under greenhouse conditions.
Cotton seeds, treated with the active compound or compound combinations, solved in N-methyl-2-pyrrolidon and diluted with water to the desired dosages, were sown in 6*6 cm pots containing 4 cm of a 1:1 mix of steamed field soil and sand.
Perlite was incubated with mycelium fragments of Pythium ultimum. 1 ml of infected perlite was scattered between the treated cotton seeds. Seeds were then covered by light expanded clay aggregate. Pots were incubated in the greenhouse 7 days at 20° C. and 80% relative humidity.
Assessment consisted of counting of emerged seedlings. 0% means an efficacy which corresponds to that of the control, while an efficacy of 100% means that all seedlings have emerged.

[1] = Measurement of logP values by HPLC on reversed phase columns (EEC directive 79/831 Annex V.A8); format: physicochemical; details: pH 2.7, 0.1% formic acid in water / acetonitrile gradient, calibration with alkan-2-ones
Method: Measurement of logP values was performed according EEC directive 79/831 Annex V.A8 by HPLC (High Performance Liquid Chromatography) on reversed phase columns with the following methods:
Measurement of LC-MS was done at pH 2.7 with 0.1% formic acid in water and with acetonitrile (contains 0.1% formic acid) as eluent with a linear gradient from 10% acetonitrile to 95% acetonitrile.
Calibration was done with not branched alkan2-ones (with 3 to 16 carbon atoms) with known logP-values (measurement of logP values using retention times with linear interpolation between successive alkanones). lambda-maX-values were determined using UV-spectra from 200 nm to 400 nm and the peak values of the chromatographic signals.

Plasmopara viticola = experiment: Plasmopara test (grapevines)/preventive; format: in vivo; details: preventive spray, 10 ppm of active ingredient, evaluated 6 days after inoculation, 0% = untreated control, 100% = no disease
Method: To produce a suitable preparation of active compound, 1 part by weight of active compound is mixed with the stated amounts of solvent and emulsifier, and the concentrate is diluted with water to the desired concentration.
To test for preventive activity, young plants are sprayed with the preparation of active compound at the stated rate of application. After the spray coating has dried on, the plants are inoculated with an aqueous spore suspension of Plasmopara viticola and then remain for 1 day in an incubation cabinet at approximately 20° C. and a relative atmospheric humidity of 100%. The plant is subsequently placed for 4 days in a greenhouse at approximately 21° C. and a relative atmospheric humidity of approximately 90%. The plants are then misted and placed for 1 day in an incubation cabinet.
The test is evaluated 6 days after the inoculation. 0% means an efficacy which corresponds to that of the untreated control, while an efficacy of 100% means that no disease is observed.

Phytophthora infestans = format: in vivo; details: tomato plants, preventive spray, 500 ppm of active ingredient, evaluated 7 days after inoculation; 0% = untreated control, 100% = no disease

| SMILES | Eff. % (Pythium ultimum) | Log P [1] | Eff. % (Plasmopara viticola) | Eff. % (Phytophthora infestans) |
| --- | --- | --- | --- | --- |
| CC(OCC1CC1)C(=O)Nc1cccc(CON=C(c2ccccc2)c2nnnn2C)n1 (centres unmarked) [Example 2] | 100% | 3.55 | 95% | – |
| Cn1nnnc1C(=NOCc1cccc(NC(=O)COCC2CCC2)n1)c1ccccc1 [Example 4] | – | 3.83 | 80% | 97% |
| CC(OCC1CC1)C(=O)Nc1ccc(F)c(CON=C(c2ccccc2)c2nnnn2C)n1 (centres unmarked) [Example 9] | – | 3.71 | 89% | 100% |
| CC(OCC1CCC1)C(=O)Nc1cccc(CON=C(c2ccccc2)c2nnnn2C)n1 (centres unmarked) [Example 12] | – | 4.16 | 84% | 100% |
| Cn1nnnc1C(=NOCc1csc(NC(=O)COCC2CC2)n1)c1ccccc1 [Example 13] | – | 3.04 | 79% | – |
| CC(OCC1CC1)C(=O)Nc1nc(CON=C(c2ccccc2)c2nnnn2C)cs1 (centres unmarked) [Example 14] | 100% | 3.29 | 97% | 100% |
| Cn1nnnc1C(=NOCc1csc(NC(=O)COCC2CCC2)n1)c1ccccc1 [Example 15] | – | 3.52 | 100% | 100% |
| Cn1nnnc1C(=NOCc1csc(NC(=O)COCC2CCCC2)n1)c1ccccc1 [Example 16] | – | 3.9 | 90% | 97% |
| Cn1nnnc1C(=NOCc1csc(NC(=O)COCC2CCCCC2)n1)c1ccccc1 [Example 17] | – | 4.29 | 94% | 100% |
| CC(OCC1CCCC1)C(=O)Nc1nc(CON=C(c2ccccc2)c2nnnn2C)cs1 (centres unmarked) [Example 19] | – | 4.25 | 91% | 100% |
| CC(OCC1CCC1)C(=O)Nc1nc(CON=C(c2ccccc2)c2nnnn2C)cs1 (centres unmarked) [Example 22] | – | 3.83 | 88% | 100% |
| Cc1nnnn1C(=NOCc1cccc(NC(=O)C(C)OCC2CC2)n1)c1ccccc1 (centres unmarked) [Example 24] | – | 3.63 | 81% | 100% |
| Cc1nnnn1C(=NOCc1cccc(NC(=O)COCC2CCC2)n1)c1ccccc1 [Example 25] | – | 3.92 | 80% | 97% |
| Cc1nnnn1C(=NOCc1csc(NC(=O)COCC2CC2)n1)c1ccccc1 [Example 33] | – | 3.11 | 94% | – |
| Cc1nnnn1C(=NOCc1csc(NC(=O)C(C)OCC2CC2)n1)c1ccccc1 (centres unmarked) [Example 34] | 92% | 3.35 | 94% | 100% |
| Cc1nnnn1C(=NOCc1csc(NC(=O)COCC2CCC2)n1)c1ccccc1 [Example 35] | – | 3.59 | 91% | 100% |
| Cc1nnnn1C(=NOCc1csc(NC(=O)C(C)OCC2CCC2)n1)c1ccccc1 (centres unmarked) [Example 42] | – | 3.9 | 93% | 100% |
| CC(C)CCOCC(=O)Nc1nc(CON=C(c2ccccc2)c2nnnn2C)cs1 [Example 45] | – | 3.8 | 91% | 100% |
| Cn1nnnc1C(=NOCc1cccc(NC(=O)COCc2ccccc2)n1)c1ccccc1 [Example 48] | – | 3.63 | 96% | 95% |
| CC(OCc1ccccc1)C(=O)Nc1nc(CON=C(c2ccccc2)c2nnnn2C)cs1 (centres unmarked) [Example 49] | – | 3.71 | 92% | – |
| Cn1nnnc1C(=NOCc1csc(NC(=O)COCc2ccccc2)n1)c1ccccc1 [Example 50] | 93% | 3.37 | 100% | 100% |
| CC(OCC1CCCO1)C(=O)Nc1nc(CON=C(c2ccccc2)c2nnnn2C)cs1 (centres unmarked) [Example 60] | – | 3.15 | 85% | 100% |
| Cc1ccccc1CSCC(=O)Nc1cccc(CON=C(c2ccccc2)c2nnnn2C)n1 [Example 65] | – | – | 84% | – |

| SMILES | Eff. % (Pythium ultimum) | Log P [1] | Eff. % (Plasmopara viticola) | Eff. % (Phytophthora infestans) |
| --- | --- | --- | --- | --- |
| Cn1nnnc1C(=NOCc1cccc(NC(=O)CSCC2CC2)n1)c1ccccc1 [Example 67] | – | 3.51 | 78% | – |
| CC(SCc1ccccc1)C(=O)Nc1nc(CON=C(c2ccccc2)c2nnnn2C)cs1 (centres unmarked) [Example 71] | – | 3.8 | 82% | 100% |
| CC(SC1CCCCC1)C(=O)Nc1nc(CON=C(c2ccccc2)c2nnnn2C)cs1 (centres unmarked) [Example 74] | – | 4.12 | 82% | 100% |
| Cc1ccccc1CSCC(=O)Nc1nc(CON=C(c2ccccc2)n2nnnc2C)cs1 [Example 88] | – | 4.06 | 84% | 100% |
| Cn1nnnc1C(=NOCc1cccc(NC(=O)C2Cc3ccccc32)n1)c1ccccc1 (centres unmarked) [Example 91] | – | 3.58 | 77% | – |
| COC(C)CC(CC(=O)Nc1cccc(CON=C(c2ccccc2)c2nnnn2C)n1)OC (centres unmarked) [Example 96] | – | 2.9 | 78% | 100% |
| Cn1nnnc1C(=NOCc1cccc(NC(=O)OCCCOC2CCCC2)n1)c1ccccc1 [Example 98] | – | 4.14 | 81% | 100% |
| Cn1nnnc1C(=NOCc1csc(NC(=O)C(C)(C)CSC2CCCCC2)n1)c1ccccc1 [Example 102] | – | 4.77 | – | 100% |
| COC(C)CC(CC(=O)Nc1nc(CON=C(c2ccccc2)c2nnnn2C)cs1)OC (centres unmarked) [Example 103] | – | 2.78 | – | 95% |
| CC(COCc1ccccc1)C(=O)Nc1nc(CON=C(c2ccccc2)c2nnnn2C)cs1 (centres unmarked) [Example 104] | – | 3.65 | – | 100% |
| CC(OCC(=O)Nc1nc(CON=C(c2ccccc2)c2nnnn2C)cs1)c1ccccc1 (centres unmarked) [Example 105] | – | 3.7 | – | 95% |
| Cn1nnnc1C(=NOCc1csc(NC(=O)CCOCc2ccccc2)n1)c1ccccc1 [Example 106] | – | 3.33 | – | 93% |
| Cn1nnnc1C(=NOCc1csc(NC(=O)CCSCc2ccc(F)cc2)n1)c1ccccc1 [Example 107] | – | 3.73 | – | 95% |
| Cn1nnnc1C(=NOCc1csc(NC(=O)CCSCc2ccccc2)n1)c1ccccc1 [Example 108] | – | 3.69 | – | 90% |
| Cc1nnnn1C(=NOCc1cccc(NC(=O)C(C)(C)CSC2CCCCC2)n1)c1ccccc1 [Example 109] | – | 5.08 | – | 95% |
| Cc1nnnn1C(=NOCc1cccc(NC(=O)CCOCc2ccccc2)n1)c1ccccc1 [Example 110] | – | 3.55 | – | 85% |
| Cc1nnnn1C(=NOCc1cccc(NC(=O)CCSCc2ccc(F)cc2)n1)c1ccccc1 [Example 111] | – | 3.92 | – | 90% |
| Cc1nnnn1C(=NOCc1cccc(NC(=O)CCSCc2ccccc2)n1)c1ccccc1 [Example 112] | – | 3.89 | – | 88% |
| Cc1nnnn1C(=NOCc1csc(NC(=O)C(C)(C)CSC2CCCCC2)n1)c1ccccc1 [Example 113] | – | 4.85 | – | 98% |
| Cc1nnnn1C(=NOCc1csc(NC(=O)CCOCc2ccccc2)n1)c1ccccc1 [Example 114] | – | 3.37 | – | 93% |
| Cc1nnnn1C(=NOCc1csc(NC(=O)CCSCc2ccc(F)cc2)n1)c1ccccc1 [Example 115] | – | 3.78 | – | 80% |
| Cc1nnnn1C(=NOCc1csc(NC(=O)CCSCc2ccccc2)n1)c1ccccc1 [Example 116] | – | 3.73 | – | 80% |
